ChEMBL document CHEMBL4184089 (Bioorg Med Chem Lett, 2018)

Assays:
[1] = biological target: Sphingosine 1-phosphate receptor 2 (Homo sapiens, UniProt O95136); test: Displacement of [32P]S1P from recombinant human S1PR2 expressed in Chem1 cell membranes co-expressing Galpha15 pretreated for 30 mins followed by [32P]S1P addition measured after 60 mins by scintillation counting method
[2] = biological target: T1, Sphingosine 1-phosphate receptor 4 (Homo sapiens, UniProt O95977); test: Displacement of [32P]S1P from recombinant human S1PR4 expressed in cell membranes pretreated for 30 mins followed by [32P]S1P addition measured after 60 mins by scintillation counting method
T1 sequence (O95977 whole entry): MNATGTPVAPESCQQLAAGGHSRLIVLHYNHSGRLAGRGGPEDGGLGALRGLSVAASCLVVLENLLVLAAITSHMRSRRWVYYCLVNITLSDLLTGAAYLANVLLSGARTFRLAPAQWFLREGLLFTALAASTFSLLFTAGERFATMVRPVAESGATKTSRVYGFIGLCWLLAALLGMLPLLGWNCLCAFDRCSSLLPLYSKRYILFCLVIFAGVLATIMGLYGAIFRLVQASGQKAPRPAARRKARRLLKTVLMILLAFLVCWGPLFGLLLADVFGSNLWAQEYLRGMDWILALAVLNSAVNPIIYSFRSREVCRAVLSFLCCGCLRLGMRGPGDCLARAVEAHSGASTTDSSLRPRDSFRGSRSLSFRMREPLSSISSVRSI

[3] = biological target: Sphingosine 1-phosphate receptor 3 (Homo sapiens, UniProt Q99500); test: Displacement of [32P]S1P from recombinant human S1PR3 expressed in Chem1 cell membranes co-expressing Galpha15 pretreated for 30 mins followed by [32P]S1P addition measured after 60 mins by scintillation counting method
Sphingosine 1-phosphate receptor 3, sequence (Q99500 whole entry): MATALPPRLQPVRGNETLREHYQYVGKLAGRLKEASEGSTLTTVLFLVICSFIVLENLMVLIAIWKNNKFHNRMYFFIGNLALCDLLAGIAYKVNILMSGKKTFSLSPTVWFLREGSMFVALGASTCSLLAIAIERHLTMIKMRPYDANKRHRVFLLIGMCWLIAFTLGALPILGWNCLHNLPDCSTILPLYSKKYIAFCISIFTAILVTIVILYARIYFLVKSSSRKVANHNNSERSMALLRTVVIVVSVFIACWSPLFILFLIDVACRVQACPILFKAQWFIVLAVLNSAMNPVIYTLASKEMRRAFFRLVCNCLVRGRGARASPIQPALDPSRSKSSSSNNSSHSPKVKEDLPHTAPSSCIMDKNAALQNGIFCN

[4] = biological target: Sphingosine 1-phosphate receptor 1 (Homo sapiens, UniProt P21453); test: Displacement of [32P]S1P from recombinant human S1PR1 expressed in CHOK1 cell membranes pretreated for 30 mins followed by [32P]S1P addition measured after 60 mins by scintillation counting method
Sphingosine 1-phosphate receptor 1, sequence (P21453 whole entry): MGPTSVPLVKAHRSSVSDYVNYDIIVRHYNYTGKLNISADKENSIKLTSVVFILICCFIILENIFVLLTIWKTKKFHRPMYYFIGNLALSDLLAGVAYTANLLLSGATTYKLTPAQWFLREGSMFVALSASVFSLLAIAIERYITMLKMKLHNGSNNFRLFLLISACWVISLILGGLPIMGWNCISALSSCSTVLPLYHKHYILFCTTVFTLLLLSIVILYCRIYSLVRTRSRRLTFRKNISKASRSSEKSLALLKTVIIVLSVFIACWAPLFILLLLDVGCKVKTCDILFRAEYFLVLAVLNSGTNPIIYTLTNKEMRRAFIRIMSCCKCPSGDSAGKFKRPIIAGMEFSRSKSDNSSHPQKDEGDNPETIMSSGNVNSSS

[5] = biological target: Sphingosine 1-phosphate receptor 5 (Homo sapiens, UniProt Q9H228); test: Displacement of [32P]S1P from recombinant human S1PR5 expressed in cell membranes pretreated for 30 mins followed by [32P]S1P addition measured after 60 mins by scintillation counting method
Sphingosine 1-phosphate receptor 5, sequence (Q9H228 whole entry): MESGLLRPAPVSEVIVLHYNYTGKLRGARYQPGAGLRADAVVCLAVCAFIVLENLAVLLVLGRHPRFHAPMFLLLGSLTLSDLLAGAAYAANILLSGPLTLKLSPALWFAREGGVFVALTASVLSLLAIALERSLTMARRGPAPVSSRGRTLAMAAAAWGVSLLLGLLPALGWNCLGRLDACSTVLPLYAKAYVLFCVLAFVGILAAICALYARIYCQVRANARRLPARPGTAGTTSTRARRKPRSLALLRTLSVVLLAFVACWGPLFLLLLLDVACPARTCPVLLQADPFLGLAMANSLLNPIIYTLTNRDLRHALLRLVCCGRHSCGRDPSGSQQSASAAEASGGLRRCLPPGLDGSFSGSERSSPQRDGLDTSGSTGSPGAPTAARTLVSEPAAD

Sphingosine 1-phosphate receptor 2, sequence (O95136 whole entry): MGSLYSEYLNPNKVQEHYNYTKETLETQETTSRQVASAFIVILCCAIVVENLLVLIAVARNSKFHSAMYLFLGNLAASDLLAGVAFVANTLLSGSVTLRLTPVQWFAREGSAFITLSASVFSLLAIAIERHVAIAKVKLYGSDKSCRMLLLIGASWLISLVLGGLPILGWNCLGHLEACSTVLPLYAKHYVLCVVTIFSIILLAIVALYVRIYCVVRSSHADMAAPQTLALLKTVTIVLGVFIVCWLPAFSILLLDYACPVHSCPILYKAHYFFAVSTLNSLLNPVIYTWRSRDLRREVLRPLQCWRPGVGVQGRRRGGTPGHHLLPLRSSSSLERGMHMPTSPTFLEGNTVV

Structure (SMILES) | IC50 [1] [µM] | IC50 [2] [µM] | IC50 [3] [µM] | IC50 [4] [µM] | IC50 [5] [µM]
COc1cc(NC(=O)NC(=O)c2cc(C(F)(F)F)c3c(C)n[nH]c3n2)cc(Cl)n1 | > 1 | – | – | – | –
Cc1nn(C)c2nc(NNC(=O)Nc3cc(Cl)n4ccnc4c3)cc(C(C)C)c12 | > 1 | – | – | – | –
Cc1n[nH]c2nc(C(=O)NC(=O)Nc3cc(Cl)nc(Cl)c3)cc(C(F)(F)F)c12 | > 1 | – | – | – | –
Cc1nn(C)c2nc(NNC(=O)Nc3cc(Cl)nc(Cl)c3)cc(C(C)C)c12 | – | – | > 1 | > 1 | –
Cc1nn(C)c2nc(C(=O)NC(=O)Nc3cc(Cl)nc(Cl)c3)cc(C(F)(F)F)c12 | > 1 | – | – | – | –

Results, then the compound that gave them:

IC50 [1] [µM] | IC50 [2] [µM] | IC50 [3] [µM] | IC50 [4] [µM] | IC50 [5] [µM] | Structure (SMILES)
> 1 | – | – | – | – | COc1cc(NC(=O)NC(=O)c2cc(C(C)C)c3c(n2)c(C)nn3C)cc(Cl)n1
> 1 | – | – | – | – | COc1cc(NC(=O)NC(=O)c2cc(C(F)(F)F)c3c(C)nn(C)c3n2)cc(Cl)n1
> 1 | – | – | – | – | Cc1nn(C)c2nc(NNC(=O)Nc3nc4c(Cl)nc(Cl)cc4[nH]3)cc(C(C)C)c12
> 1 | – | – | – | – | COc1cc(-c2nc(-c3cc(C(C)C)c4c(C)nn(C)c4n3)no2)cc(Cl)n1
> 1 | – | – | – | – | COc1cc(-c2nnc(-c3cc(C(C)C)c4c(C)nn(C)c4n3)[nH]2)cc(Cl)n1
0.0565 | > 1 | > 1 | > 1 | > 1 | Cc1nn(C)c2nc(NNC(=O)Nc3cc(Cl)nc(OCC4CC4)c3)cc(C(C)C)c12
0.0291 | > 1 | > 1 | > 1 | > 1 | Cc1nn(C)c2nc(NNC(=O)Nc3cc(Cl)nc(OC(C)C)c3)cc(C(C)C)c12
